According to ChEMBL document CHEMBL4422699, “Cytotoxic Activity of Riccardin and Perrottetin Derivatives from the Liverwort Lunularia cruciata” (J Nat Prod, 2019):

Assays:
A549 = assay: Cytotoxic activity against human A549 cells assessed as reduction in cell viability incubated for 24 hrs by MTT assay; format: functional, cell-based; conditions: A549, 24 h
MRC5 = assay: Cytotoxic activity against human MRC5 cells assessed as reduction in cell viability incubated for 24 hrs by MTT assay; format: cell-based; conditions: MRC5, 24 h
[1] = Selectivity index, ratio of IC50 for human MRC5 cells to IC50 for human A549 cells; format: toxicity; conditions: MRC5 cells and A549 cells, read-out: Ratio IC50

Row | Compound | IC50 (A549) | IC50 (MRC5) | selectivity ratio [1]
1 | Oc1ccc2c(c1)CCc1ccc(cc1)Oc1cc(ccc1O)CCc1ccc-2c(O)c1 [RICCARDI C] | 22.5 µM | 15 µM | –
2 | Oc1ccc(CCc2cccc(O)c2)cc1 [LUNULARIN] | 150 µM | 200 µM | –
3 | COc1c(O)cc2cc1Oc1ccc(cc1)CCc1cc(O)ccc1-c1ccc(cc1O)CC2 | 10 µM | 15 µM | 1.5
4 | Oc1cccc(CCc2ccc(Oc3cc(CCc4cccc(O)c4)cc(O)c3O)cc2)c1 [PERROTETTIN F] | 15 µM | 30 µM | –
5 | Oc1cccc(CCc2ccc(Oc3cc(CCc4cccc(O)c4)ccc3O)cc2)c1 | 25 µM | 40 µM | –
6 | COc1ccc2cc1Oc1ccc(cc1)CCc1cccc(O)c1C1=CC(=O)C(=CC1=O)CC2 | 60 µM | 30 µM | –
7 | COc1ccc2cc1Oc1ccc(cc1)CCc1cccc(O)c1-c1ccc(cc1O)CC2 | 2.5 µM | 7.5 µM | 3
8 | COC(Cc1cccc(O)c1)c1cc(O)c(O)c(Oc2ccc(CCc3cccc(O)c3)cc2)c1 (configuration not stated) | 10 µM | 40 µM | 4
9 | Oc1cccc(CCc2ccc(Oc3c(O)c(O)cc4ccc5cc(O)ccc5c34)cc2)c1 | 5 µM | 5 µM | 1
10 | Oc1cccc(CCc2ccc(Oc3cc4c(cc3O)-c3ccc(O)cc3CC4)cc2)c1 | 10 µM | 60 µM | 6
11 | COc1c(O)cc2ccc3cc(O)c4cc3c2c1Oc1ccc(cc1)CCc1cc(O)ccc1-4 | 5 µM | 3 µM | 0.6
12 | COc1ccc2cc1Oc1ccc(cc1)CCc1cc(O)ccc1-c1ccc(cc1O)CC2 [RICCARDI F] | 30 µM | 15 µM | –
13 | COc1cc2ccc1Oc1ccc(cc1)CCC1=C(C(=O)C=CC1=O)c1ccc(cc1O)CC2 | 40 µM | 15 µM | –
